Experimental data published in PubChem BioAssay AID504703 (Southern Research Specialized Biocontainment Screening …, 2011).
pIC50: −log10 of the molar value. Values joined by “and” are separate entries in the source; they are usually repeats but may differ in a detail not shown here. Identical values can stand only once. Active and inactive are the calls of the source. No rule for the calls is given here.

System: M. tuberculosis H37Rv growth inhibition with meropenem
Experiment: H37Rv growth inhibition with and without meropenem, dose response, set 2 (AID 504703);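 also: growth ran 7 days at 37 °C then overnight with Alamar Blue before reading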
Conditions: for pIC50: measured here: IC50 without meropenem
[1] = M. tuberculosis H37Rv growth inhibition
[2] = M. tuberculosis H37Rv growth inhibition, measured here: IC90 without meropenem
[3] = measured here: IC90 with meropenem

Row | SMILES | pIC50 [1] | IC90 [2] | IC50 | IC90 [3]
1 | CCC(=O)N/C(N)=N/c1nc2ccccc2o1 | < 4.60 | > 25 µM |  | 
2 | CC(C)(C)c1ccc(OCC(=O)Nc2nc3ccccc3s2)cc1 | < 4.60 | > 25 µM |  | 
3 | Cc1ccc(OCC(=O)Nc2nnn(C)n2)c(C)c1 | < 4.60 | > 25 µM |  | 
4 | N/C(=N\c1nc2cc(Cl)ccc2o1)NC(=O)c1ccccc1 | < 4.60 | > 25 µM |  | 
5 | c1ccc(Nc2ncnc3c2oc2ccccc23)cc1 | < 4.73 and 4.94 | > 18.8 µM | > 18.8 µM (inactive) and 5.29 µM (inactive) | > 25 µM
6 | CC(=O)c1c(C)n(-c2ccccc2C)c2ccc(O)cc12 | < 4.60 | > 25 µM |  | 
7 | O=C(COc1ccccc1)Nc1nc2ccccc2s1 | < 4.60 | > 25 µM |  | 
8 | COC(=O)c1sc(-c2ccc(C(C)(C)C)cc2)cc1NC(=O)CCC(=O)O | 4.87 and 5.02 | > 25 µM | 7.32 µM (inactive) | > 25 µM
9 | Cc1cc(C)c(OCC(=O)Nc2nc3ccccc3s2)c(Cl)c1 | < 4.60 | > 25 µM |  | 
10 | Cc1cc2cc(Cl)ccc2[nH]1 | < 4.60 | > 25 µM |  | 
11 | COC(=O)c1c(C)n(-c2ccccc2)c2ccc(O)cc12 | < 4.60 | > 25 µM | 8.43 µM (inactive) and > 12.5 µM (inactive) | > 18.8 µM
12 | Cc1onc(-c2c(Cl)cccc2Cl)c1/C(N)=N/OC(=O)C1CC1 | 4.83 | > 25 µM |  | > 25 µM
13 | CC(=O)Nc1ccc2nc(NC(=O)COc3ccccc3)sc2c1 | < 4.60 | > 25 µM |  | 
14 | COC(=O)c1c(C)[nH]c2ccccc12 | < 4.60 | > 25 µM |  | 
15 | CC(C)(Oc1ccc(Cl)cc1)C(=O)Nc1nc2ccccc2s1 | < 4.60 | > 25 µM |  | 
16 | O=C(O)CCC(=O)Nc1nc2ccccc2s1 | < 4.60 | > 25 µM |  | 
17 | CCOc1ccc(NC(=O)COc2ccc(C)cc2C)cc1 | < 4.60 | > 25 µM |  | 
18 | Cc1cc2ccccc2[nH]1 | < 4.60 | > 25 µM |  | 
19 | Cc1ccc(OCC(=O)Nc2nc3ccc(F)cc3s2)cc1 | < 4.60 | > 25 µM |  | 
20 | Cc1cccc(C)c1OCC(=O)Nc1nc2ccccc2s1 | < 4.60 | > 25 µM |  | 
21 | Cc1ccc(OCC(=O)Nc2nc3c(Cl)cccc3s2)cc1 | < 4.60 | > 25 µM |  | 

Row | SMILES | pIC50 [1] | IC90 [2] | IC50 | IC90 [3]
22 | O=C(COc1ccc(Cl)cc1)Nc1nc2ccc(F)cc2s1 | < 4.60 | > 25 µM |  | 
23 | COc1ccc2nc(NC(=O)COc3ccccc3C(C)C)sc2c1 | < 4.60 | > 25 µM |  | 
24 | CCOc1ccc2c(c1)c(C(C)=O)c(C)n2-c1ccccc1Cl | < 4.60 | > 25 µM | 13.6 µM (inactive) | > 25 µM
25 | S=C(Nc1ccccc1)Nc1ccc(Cl)cn1 | < 4.73 and 4.76 | > 25 µM |  | > 25 µM
26 | COc1ccc2nc(NC(=O)COc3c(C)cc(C)cc3C)sc2c1 | < 4.60 | > 25 µM |  | 
27 | CC(=O)c1c(C)n(-c2ccc(C)cc2)c2ccc(O)cc12 | < 4.60 | > 25 µM |  | 
28 | Cc1ccccc1OCC(=O)Nc1ccccc1-c1ccccc1 | < 4.60 | > 25 µM | 14.6 µM (inactive) | > 25 µM
29 | COc1cccc(NC(=S)Nc2cc(C)cc(C)n2)c1 | 4.84 | > 25 µM | 7.2 µM (inactive) | > 25 µM
30 | CCOc1ccc2c(c1)c(C(C)=O)c(C)n2-c1ccccc1 | < 4.60 | > 25 µM |  | > 18.8 µM and 2.79 µM
31 | CCOC(=O)c1cnc2cc(-c3ccc(C(C)(C)C)cc3)nn2c1N | 5.94 and 5.39 | > 25 µM | 1.99 µM (inactive) | > 25 µM
32 | O=C(Nc1nc2ccccc2[nH]1)c1ccc(Cl)c(Cl)c1 | 5.72 | > 25 µM | 0.81 µM (inactive) | > 25 µM
33 | Cc1cccnc1NC(=S)NC(=O)c1cncc(Br)c1 | 5.38 | > 25 µM | 2.71 µM (inactive) | > 25 µM
34 | Cc1ccccc1C(=O)Nc1nc2ccccc2[nH]1 | 4.75 | > 25 µM | 8.75 µM (inactive) | > 25 µM
35 | CCc1ccc2nc(/N=C(\N)NC(=O)c3ccccc3)nc(C)c2c1 | 5.73 | > 12.5 µM | 0.82 µM (inactive) | > 25 µM
36 | O=C(COc1ccc2c3c(c(=O)oc2c1)CCC3)Nc1nc2ccccc2[nH]1 | < 4.60 | > 25 µM |  | 
37 | N/C(=N\c1nc2ccccc2o1)NC(=O)c1ccccc1Br | 5.08 | > 25 µM |  | > 25 µM
38 | c1ccc(OCc2nnc(-c3ccccc3)o2)cc1 | < 4.73 and 4.82 | > 25 µM | 15 µM (inactive) | > 25 µM
39 | CCOc1ccc2nc(NC(=O)Cc3ccc(OC)cc3)sc2c1 | < 4.60 | > 25 µM |  | 
40 | COc1ccc2nc(NC(=O)COc3ccc(C)cc3)sc2c1 | < 4.60 | > 25 µM |  | 
41 | Cc1ccc2oc(/N=C(\N)NC(=O)c3ccccc3)nc2c1 | < 4.60 | > 25 µM |  | 
42 | Cc1cc2ccccc2n1-c1ccccc1 | < 4.60 | > 25 µM |  | 

Row | SMILES | pIC50 [1] | IC90 [2] | IC50 | IC90 [3]
43 | COc1cccc(-c2ccc(-c3noc(-c4ccccc4F)n3)c(OC)n2)c1 | < 4.60 | > 25 µM | > 25 µM (inactive) | > 25 µM
44 | Cc1ccccc1OCC(=O)Nc1ccccc1N1CCCCC1 | < 4.60 | > 25 µM |  | > 25 µM
45 | O=C(OC(C(=O)Nc1ccc(Cl)cc1C(F)(F)F)c1ccccc1)C1=COCCO1 (stereo not given) | 4.77 | > 25 µM |  | > 25 µM
46 | COc1ccc2nc(NC(=O)COc3ccccc3)sc2c1 | < 4.60 | > 25 µM |  | 
47 | CC(=O)c1c(C)n(-c2ccccc2)c2ccc(OS(=O)(=O)C(F)(F)F)cc12 | < 4.60 | > 25 µM | > 25 µM (inactive) | > 25 µM
48 | CC(=O)c1c(C)n(-c2ccccc2)c2ccc(O)cc12 | < 4.60 | > 25 µM | 20.1 µM (inactive) | > 25 µM
49 | COc1ccc2nc(NC(=O)C(C)Oc3ccccc3)sc2c1 (stereo not given) | < 4.60 | > 25 µM |  | 
50 | O=C(Cc1ccccc1Cl)Nc1nc2ccccc2[nH]1 | < 4.73 and 4.78 | > 25 µM | 18.9 µM (inactive) | > 25 µM
51 | CN(NC(=O)c1c(Cl)cccc1Cl)c1cccc(Cl)n1 | < 4.60 | > 25 µM | 15.5 µM (inactive) | > 25 µM
52 | OCCCc1cn(-c2ccccc2)c2ccccc12 | < 4.60 | > 25 µM | 14.2 µM (inactive) | > 25 µM
53 | CCOC(=O)COc1nc(-c2ccc(Cl)cc2)cc(-c2ccco2)c1C#N | < 4.60 | > 25 µM |  | > 25 µM
54 | O=C(COc1ccccc1Cl)Nc1nc2ccccc2s1 | < 4.60 | > 25 µM |  | 
55 | CCOc1ccc2nc(NC(=O)COc3ccc(F)cc3)sc2c1 | < 4.60 | > 25 µM |  | 
56 | CC(=O)c1c(C)n(-c2cccc(Cl)c2)c2ccc(O)cc12 | < 4.60 | > 25 µM |  | 
57 | N/C(=N\c1nc2ccccc2o1)NC(=O)C1CC1 | < 4.60 | > 25 µM |  | 
58 | CCOc1ccc2[nH]cc(C(=O)OC)c2c1 | < 4.60 | > 25 µM | > 25 µM (inactive) | > 25 µM
59 | Cc1cc(C)c(OCC(=O)Nc2nc3ccc(C)cc3s2)c(C)c1 | < 4.60 | > 25 µM |  | 
60 | O=C(COc1cccc2ccccc12)Nc1nc2ccccc2s1 | < 4.60 | > 25 µM |  | 
61 | Cc1ccc(OCC(=O)Nc2ccc3c4c(cccc24)CC3)c(C)c1 | < 4.60 | > 25 µM |  | > 25 µM
62 | Cc1ccc(C(C)C)c(OCC(=O)Nc2nc3ccccc3s2)c1 | < 4.60 | > 25 µM |  | 
63 | O=C(Nc1nc2ccccc2[nH]1)c1cc2cc(Br)ccc2o1 | < 4.60 | > 25 µM |  | 

Row | SMILES | pIC50 [1] | IC90 [2] | IC50 | IC90 [3]
64 | CCCN1CC(O)=C(c2nc3ccccc3s2)C1=N | < 4.60 | > 25 µM |  | 
65 | O=C(Cc1csc(-c2ccccc2F)n1)Nc1nc2ccccc2[nH]1 | < 4.60 | > 25 µM |  | 
66 | O=C(CSc1n[nH]c(=O)n1C1CC1)c1ccc2c(c1)OCCO2 | 4.96 | > 25 µM | 4.57 µM (inactive) | > 25 µM
67 | CCOc1ccc2c(ccn2-c2ccccc2)c1 | < 4.60 | > 25 µM |  | 
68 | CC(=O)Nc1ccc2nc(NC(=O)Cc3ccccc3)sc2c1 | < 4.60 | > 25 µM |  | 
69 | CCCOc1ccc2c(c1)c(C(C)=O)c(C)n2-c1ccccc1 | < 4.60 | > 25 µM |  | 
70 | Oc1ccc2[nH]ccc2c1 | < 4.60 | > 25 µM |  | 
71 | Cc1cc2cc(Cl)ccc2n1-c1ccccc1 | < 4.60 | > 25 µM |  | 
72 | CCOc1ccc2c(c1)cc(C)n2-c1ccccc1 | < 4.60 | > 25 µM | 11.5 µM (inactive) | > 25 µM
73 | COC(=O)c1ccc2nc(NC(=O)COc3ccccc3)sc2c1 | < 4.60 | > 25 µM |  | 
74 | Cc1ccc2sc(NC(=O)COc3ccccc3)nc2c1C | 4.63 | > 25 µM |  | 
75 | O=C(COC(=O)C1CC1)c1c[nH]c2ccccc12 | 5.94 and 5.68 | > 6.25 µM |  | > 25 µM
76 | CCOc1ccc2nc(NC(=O)C3(c4ccccc4)CCCC3)sc2c1 | 5.68 | 8.95 µM | 1.2 µM (inactive) | 4.16 µM
77 | COc1ccc(C(=O)Nc2ccc3nc(N4CCCCC4)cc(C)c3c2)c(OC)c1 | < 4.60 | > 25 µM | 17.6 µM (inactive) | > 25 µM
78 | Cc1ccccc1OCC(=O)Nc1ncccn1 | < 4.60 | > 25 µM |  | 
79 | CCOc1ccc2nc(NC(=O)COc3ccc(OC)cc3)sc2c1 | < 4.60 | > 25 µM |  | 
80 | Cc1cc2cc(O)ccc2[nH]1 | < 4.60 | > 25 µM |  | 
81 | COc1ccc2c(c1)c(C(C)=O)c(C)n2-c1ccccc1 | < 4.60 | > 25 µM |  | > 18.8 µM
82 | CC(=O)c1c(C)n(-c2ccccc2)c2ccc(OC(C)C)cc12 | < 4.60 | > 25 µM |  | 
